From patent US7160700B2, “Glycosyltransferase genes” (International Flower Developments Proprietary Limited, priority 2000, dated 2007)

What was measured:
3′GT = target: T1, 3′GT (Gentiana triflora, UniProt Q8H0F2); test: Analysis of substrate specificity of purified 3′GT expressed in Escherichia coli (glucose transfer from UDP-glucose, HPLC); format: biochemical, gentian; conditions: compound used as substrate; for 3′GT activity to substrate (qualitative): purified sample of 3′GT from E. coli; for relative activity: activity to delphinidin 3,5-glucoside assumed to be 100%
T1 construct: the region from the initiation methionine to poly A of pG3′GT7 was inserted in the NcoI/KpnI site of E. coli expression vector pQE61; made in house; host or cells: Escherichia coli JM105 (vector pQE61, plasmid pG3′Q1)
T1 sequence (Q8H0F2 1-482): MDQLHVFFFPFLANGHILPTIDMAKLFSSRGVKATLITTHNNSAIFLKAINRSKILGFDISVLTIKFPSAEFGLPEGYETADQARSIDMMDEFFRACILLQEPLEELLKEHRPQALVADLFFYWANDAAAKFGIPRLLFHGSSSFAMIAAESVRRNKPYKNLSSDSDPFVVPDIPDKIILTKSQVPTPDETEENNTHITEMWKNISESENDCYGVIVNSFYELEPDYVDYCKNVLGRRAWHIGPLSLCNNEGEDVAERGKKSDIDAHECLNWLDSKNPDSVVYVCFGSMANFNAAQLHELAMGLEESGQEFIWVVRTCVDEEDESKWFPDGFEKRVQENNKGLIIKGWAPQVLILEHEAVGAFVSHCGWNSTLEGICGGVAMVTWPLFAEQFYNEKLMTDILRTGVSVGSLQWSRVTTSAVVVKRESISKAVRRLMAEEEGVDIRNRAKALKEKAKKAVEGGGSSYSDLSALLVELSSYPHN
Experimental: (§1) 20 μl of the crude enzyme extract solution, 10 μl of 0.5M potassium phosphate (pH 8.5), 10 μl of 5 mM UDP-glucose, 10 μl of delphinidin 3,5-diglucoside (1.5 mg/ml) were mixed and maintained at 30° C. for 10 minutes. Then, following the procedure of Fujiwara et al. (Fujiwara et al. Plant J. (1998)), reaction was terminated, and the reaction product was analyzed using high performance liquid chromatography (HPLC). As a result, it was determined that gentian flower petals contain an enzyme having activity to transfer a glycosyl group to the 3′-position of an anthocyanin.
Using the PCR method, an NcoI site was introduced so as to coincide with the initiation methionine codon of pG3′GT7, and the region from the initiation methionine to poly A of pG3′GT7 was inserted in the NcoI/KpnI site of E. coli expression vector pQE61 (QIAGEN). The obtained E. coli expression vector was denoted by pG3′Q1. pG3′Q1 was introduced into the Escherichia coli JM105 strain, and after preculturing overnight at 37° C., a part of the precultured medium was innoculated into 8 L of a main culture medium, and was cultured at 27° C. until OD600=0.6. To induce expression of the 3′GT gene, IPTG was added so as to reach a final concentration of 0.4 mM, and was cultured overnight at 27° C. After cells were collected, washed, and suspended in 400 ml of crushing buffer (25 mM Tris-HCl (pH 7.5), 250 mM NaCl, 1 mM EDTA, 0.5% β-mercaptoethanol), the cells were disrupted by ultrasonic treatment. After centrifuging, the resultant supernatant was subjected to processing with DE52, and a 40–70% ammonium sulfate precipitate fraction was recovered. After desalting, the crude protein solution was loaded onto a DEAE-TOYOPEARL (Toso Co.) preequilibrated with buffer C (25 mM Tris-HCl (pH 7.5), 0.5% β-mercaptoethanol), and was eluted with buffer C containing 0–0.5 M NaCl. The active fraction was recovered, adsorbed to BlueA (Amicon Co.) equilibrated buffer C, and was eluted with a linear gradient formed with the buffer C and the buffer C containing 2 M NaCl. The obtained active fraction was used in the reaction, to be described later, as a purified sample of the 3′GT portion.
Using the purified sample of the 3′GT portion obtained in Example 6, the substrate-specificity of the 3′GT was analyzed. […] Assuming the relative activity to delphinidin 3,5-glucoside to be 100%, the activity to delphinidin 3-glucosyl-5-caffeoylglucoside is about 50%. Trace amount of products (1% or less) were also observed using delphinidin or delphinidin 3-diglucoside as a substrate. From retention time of HPLC and the absorption spectrum, the reaction product is considered to be a substrate having a glycosyl group added to the 3′-position thereof.

[1] = target: T2, protein which has activity to transfer a glycosyl group to the 3′-position of anthocyanins (Gentiana triflora, UniProt Q8H0F2); test: Enzyme activity of extract from yeast transformed with pYG3′GT7 (measured as in Example 1, HPLC); format: biochemical, gentian; conditions: compound used as substrate
T2 construct: A DNA fragment of approximately 1.6 kbp, which was obtained by digestion of pG3′GT7 with XhoI, was recovered; made in house; extract after glass-bead disruption
T2 sequence (Q8H0F2 1-482): T1 sequence (Q8H0F2 1-482)
Experimental: as §1
A DNA fragment of approximately 1.6 kbp, which was obtained by digestion of pG3′GT7 with XhoI, was recovered. This DNA was ligated to a DNA fragment obtained by digesting pYE22m with SaII, and the obtained plasmid that has the initiation codon nearer to the promotor on pYE22m was denoted by pYG3′GT7. pYE22m was constructed according to the method as set forth in Japanese Patent Publication No. 4-228078. This plasmid was introduced into yeast cells to obtain transformed yeast cells. After the yeast cells were cultured and disrupted with glass beads, enzyme activity was measured as in Example 1 using delphinidin 3,5-diglucoside as substrate.
No activity was found in the yeast in which the plasmid was not introduced. When cyanidin 3,5-diglucoside was used as substrate, no new peak was produced.

Row | Compound | 3′GT activity to substrate (qualitative) (3′GT) | activity for adding a glycosyl group to substrate (qualitative) [1] | relative activity (3′GT)
1 | OC[C@H]1O[C@@H](Oc2cc3c(O[C@@H]4O[C@H](CO)[C@@H](O)[C@H](O)[C@H]4O)cc(O)cc3[o+]c2-c2ccc(O)c(O)c2)[C@H](O)[C@@H](O)[C@@H]1O [cyanidin 3,5-diglucoside] | not | exhibits no activity | 
2 | OC[C@H]1O[C@@H](Oc2cc3c(O[C@@H]4O[C@H](CO)[C@@H](O)[C@H](O)[C@H]4O)cc(O)cc3[o+]c2-c2cc(O)c(O)c(O)c2)[C@H](O)[C@@H](O)[C@@H]1O [delphinidin 3,5-diglucoside] | exhibits activity | exhibits activity | 100%
3 | delphinidin 3-glucosyl-5-caffeoylglucoside | exhibits activity |  | about 50%
